SMILES strings stand for the structures. Bounds are passed on as bounds.

One assay deals with c-Met (Homo sapiens, UniProt P08581). The assay can be described thus: Ki determination for the inhibition of c-Met kinase activity (standard coupled enzyme system).
Sequence of c-Met (P08581 25-1390): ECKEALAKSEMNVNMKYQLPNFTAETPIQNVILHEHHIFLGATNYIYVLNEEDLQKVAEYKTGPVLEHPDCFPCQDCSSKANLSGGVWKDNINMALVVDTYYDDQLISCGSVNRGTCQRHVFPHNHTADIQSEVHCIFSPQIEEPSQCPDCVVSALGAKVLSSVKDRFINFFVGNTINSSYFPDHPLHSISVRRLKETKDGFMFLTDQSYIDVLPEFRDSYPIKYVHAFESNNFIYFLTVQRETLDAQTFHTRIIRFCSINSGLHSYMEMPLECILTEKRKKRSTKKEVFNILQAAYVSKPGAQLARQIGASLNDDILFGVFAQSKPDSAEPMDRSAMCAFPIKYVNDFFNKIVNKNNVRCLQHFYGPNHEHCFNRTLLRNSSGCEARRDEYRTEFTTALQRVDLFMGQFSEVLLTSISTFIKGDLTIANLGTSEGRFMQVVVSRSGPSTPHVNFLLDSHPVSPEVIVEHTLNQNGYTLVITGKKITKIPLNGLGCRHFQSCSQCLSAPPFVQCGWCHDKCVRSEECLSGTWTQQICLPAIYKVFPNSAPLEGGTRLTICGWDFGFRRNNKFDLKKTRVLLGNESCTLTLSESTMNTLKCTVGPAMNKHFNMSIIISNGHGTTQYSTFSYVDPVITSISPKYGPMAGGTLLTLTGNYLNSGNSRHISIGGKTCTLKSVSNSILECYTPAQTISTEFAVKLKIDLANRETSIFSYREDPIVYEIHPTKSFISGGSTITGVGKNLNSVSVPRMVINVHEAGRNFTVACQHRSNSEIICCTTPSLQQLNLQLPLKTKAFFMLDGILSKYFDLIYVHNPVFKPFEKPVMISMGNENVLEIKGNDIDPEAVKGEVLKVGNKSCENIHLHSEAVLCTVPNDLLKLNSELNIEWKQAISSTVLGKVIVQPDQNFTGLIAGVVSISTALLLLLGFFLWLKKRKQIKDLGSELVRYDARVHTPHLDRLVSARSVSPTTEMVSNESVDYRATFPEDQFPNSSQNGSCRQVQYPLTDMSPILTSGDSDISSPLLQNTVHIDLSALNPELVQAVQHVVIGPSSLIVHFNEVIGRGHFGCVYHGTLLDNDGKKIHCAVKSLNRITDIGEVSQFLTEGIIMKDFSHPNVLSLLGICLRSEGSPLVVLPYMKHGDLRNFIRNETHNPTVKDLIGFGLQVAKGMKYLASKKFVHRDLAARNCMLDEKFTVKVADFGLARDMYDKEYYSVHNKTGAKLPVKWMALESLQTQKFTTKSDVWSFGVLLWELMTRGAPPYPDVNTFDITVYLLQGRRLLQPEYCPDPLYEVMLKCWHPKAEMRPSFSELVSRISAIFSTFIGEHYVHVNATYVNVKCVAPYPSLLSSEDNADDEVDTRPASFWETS
Conditions: not given
In kind it is biochemical. In a few lines: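 The kinase (80 nM) turned over polyGluTyr (10 μM) with ATP (200 μM, added to start), coupled to NADH oxidation via pyruvate kinase/lactate dehydrogenase at pH 7.5 HEPES, 1.5% DMSO.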
Turning to `C[C@@H](c1ccc(OP(=O)(O)O)cc1)c1nnc2sc(Nc3cccc(Cl)c3)nn12` [Compound 170], the Ki fell in the range of 100 to 2000 nM.

The assay is the same for the next values; noted with them: coupled enzyme system, 200 μM ATP, 80 nM c-Met, 30° C.; read-out: c-Met Ki.
As to `O=C(Nc1ccc2nnc(Cc3ccc(O)cc3)n2n1)c1ccccc1` [Compound 397], the Ki is more than 2000 nM.

In the case of `C[C@@H](c1ccc(O)cc1)c1nnc2ccc(Nc3cc(Cl)ccc3OCCN3CCCC3)nn12` [Compound 443], the Ki lay within 100 to 2000 nM.

As to `CC(=O)N1CCC(Nc2ccc3nnc(Cc4ccc(O)cc4)n3n2)CC1` [Compound 323], the Ki lay within 100 to 2000 nM.

With `Clc1cccc(Nc2ccc3nnc(CNc4ccc5[nH]ccc5c4)n3n2)c1` [Compound 465], the Ki is more than 2000 nM.

`Clc1cccc(Nc2ccc3nnc(CNc4ncccn4)n3n2)c1` [Compound 414]: the Ki is more than 2000 nM.

On to `O=C1COc2ccc(C3=Nn4c(Cc5ccc(O)cc5)nnc4SC3)cc2N1` [Compound 535], for which the Ki was in the range of 100 to 2000 nM.

Regarding `CC(=O)N1CCCC(Nc2ccc3nnc(Cc4ccc(O)cc4)n3n2)C1` (centres unmarked) [Compound 326], the Ki was more than 2000 nM.

As to `Clc1cccc(Nc2ccc3nnc(COc4cccc(Cl)n4)n3n2)c1` [Compound 376], the Ki is more than 2000 nM.

As to `Clc1cccc(Nc2ccc3nnc(Cn4nc(Cl)c5ccccc54)n3n2)c1` [Compound 486], the Ki is more than 2000 nM.

For the compound `Clc1cccc(Nc2ccc3nnc(CNc4ccc5cn[nH]c5c4)n3n2)c1` [Compound 487], the Ki fell in the range of 100 to 2000 nM.

Consider `Cc1cc(C)cc(Nc2ccc3nnc(Cc4ccc(O)c(Cl)c4)n3n2)c1` [Compound 296], for which the Ki is less than 100 nM.

Regarding `Clc1cccc(Nc2ccc3nnc(Cc4ccc5c(c4)CCO5)n3n2)c1` [Compound 355], the Ki was less than 100 nM.

Take `Clc1ccc(Cl)c(Nc2ccc3nnc(Cc4ccc5c(c4)OCO5)n3n2)c1` [Compound 363]: the Ki fell in the range of 100 to 2000 nM.

`Clc1cccc(Nc2ccc3nnc(Cc4ccc(Cl)nc4)n3n2)c1` [Compound 354]: the Ki was 100 to 2000 nM.

Consider `Clc1cccc(Nc2ccc3nnc(COc4cccc(Cl)c4)n3n2)c1` [Compound 384], for which the inhibition constant Ki is more than 2000 nM.

On to `CS(=O)(=O)Nc1cccc(Cc2nnc3n2N=C(c2ccccc2)CS3)c1` [Compound 526], for which the Ki was more than 2000 nM.

With `Clc1cccc(Nc2ccc3nnc(Cn4cncn4)n3n2)c1` [Compound 517], the Ki lay in the range of 100 to 2000 nM.

For the compound `Fc1ccc(NCc2nnc3ccc(Nc4cccc(Cl)c4)nn23)cc1` [Compound 343], the Ki is more than 2000 nM.

On to `Oc1ccc(Cc2nnc3ccc(Sc4cccc(Cl)c4)nn23)cc1` [Compound 305], for which the Ki was less than 100 nM.

On to `Oc1ccc2[nH]cc(Cc3nnc4ccc(Nc5cccc(Cl)c5)nn34)c2c1` [Compound 458], for which the Ki was more than 2000 nM.

Regarding `C[C@@H](c1ccc(O)cc1)c1nnc2ccc(Nc3ccnc(Cl)c3)nn12` [Compound 506], the Ki is less than 100 nM.

For `Fc1ccc(NCc2nnc3ccc(Nc4cccc(Cl)c4)nn23)c(F)c1` [Compound 344], the inhibitory constant (Ki) was more than 2000 nM.

For the compound `CCc1cccc(Nc2ccc3nnc(Cc4ccc(OC)cc4)n3n2)c1` [Compound 291], the Ki was in the range of 100 to 2000 nM.

Take `O=[N+]([O-])c1ccc(Cc2nnc3ccc(Nc4cccc(Cl)c4)nn23)cc1` [Compound 475]: the Ki is more than 2000 nM.

Regarding `Fc1ccc(Nc2ccc3nnc(C4(c5ccc6c(c5)OCO6)CC4)n3n2)cc1Cl` [Compound 427], the Ki lay in the range of 100 to 2000 nM.

Turning to `C[C@@H](c1ccc(O)cc1)c1nnc2ccc(Cl)nn12` [Compound 501], the Ki lay within 100 to 2000 nM.

With `Oc1ccc(Cc2nnc3ccc(NC4CC4)nn23)cc1` [Compound 329], the Ki fell in the range of 100 to 2000 nM.

In the case of `NC(=O)c1ccccc1OCc1nnc2ccc(Nc3cccc(Cl)c3)nn12` [Compound 392], the Ki is more than 2000 nM.

As for `C[C@@H](c1ccc(O)cc1)c1nnc2ccc(Nc3nncs3)nn12` [Compound 484], the Ki lay within 100 to 2000 nM.

Take `CC(=O)Nc1cccc(OCc2nnc3ccc(Nc4cccc(Cl)c4)nn23)c1` [Compound 468]: the Ki lay within 100 to 2000 nM.

With `Clc1cccc(Nc2ccc3nnc(CNc4ccc5cc[nH]c5c4)n3n2)c1` [Compound 477], the Ki was more than 2000 nM.

Take `CCn1nccc1Nc1ccc2nnc([C@@H](C)c3ccc(O)cc3)n2n1` [Compound 497]: the Ki is 100 to 2000 nM.

For `COc1ccc(Cc2nnc3ccc(Nc4cccc(Cl)c4)nn23)c(Cl)c1` [Compound 440], the Ki is less than 100 nM.

As for `COc1ccc(NCc2nnc3ccc(Nc4cccc(Cl)c4)nn23)cc1` [Compound 350], the Ki is more than 2000 nM.

`Clc1cccc(Nc2ccc3nnc(CNc4ccc5[nH]ncc5c4)n3n2)c1` [Compound 488]: the Ki was in the range of 100 to 2000 nM.

As for `Clc1cccc(Nc2ccc3nnc(Cc4ccccc4)n3n2)c1` [Compound 315], the Ki is more than 2000 nM.

`CC1=Nn2c(Cc3ccc(O)cc3)nnc2SC1` [Compound 542]: the Ki fell in the range of 100 to 2000 nM.

On to `Oc1ccc(Cc2nnc3n2N=C(c2ccsc2)CS3)cc1` [Compound 541], for which the Ki is less than 100 nM.

With `COc1ccc(Cc2nnc3n2N=C(c2ccccc2)CS3)cc1F` [Compound 531], the Ki is more than 2000 nM.

Regarding `Oc1ccc(Cc2nnc3ccc(NC4CCOCC4)nn23)cc1` [Compound 318], the Ki fell in the range of 100 to 2000 nM.

For the compound `O=C(Nc1ccc2nnc(Cc3ccc(O)cc3)n2n1)c1cccc(Cl)c1` [Compound 398], the Ki is more than 2000 nM.

In the case of `Nc1cc(C(F)(F)F)ccc1OCc1nnc2ccc(Nc3cccc(Cl)c3)nn12` [Compound 429], the Ki is more than 2000 nM.

As for `C[C@@H](Nc1ccc2nnc(Cc3ccc(O)cc3)n2n1)C(C)(C)C` [Compound 309], the Ki is 100 to 2000 nM.

Still in this assay, the particulars now being: coupled enzyme system, 200 μM ATP, 10 μM polyGluTyr, 80 nM c-Met, 30° C.; read-out: c-Met Ki.
For `Oc1ccc(Cc2nnc3ccc(NCc4ccccc4)nn23)cc1` [Compound 277], the inhibition constant (Ki) lay within 100 to 2000 nM.

`CNC(=O)c1cccc(Nc2ccc3nnc(Cc4ccc(OC)cc4)n3n2)c1` [Compound 235]: the Ki is 100 to 2000 nM.

Turning to `Oc1ccc(Cc2nnc3sc(Nc4ccc(-n5cccn5)cc4)nn23)cc1` [Compound 71], the inhibition constant (Ki) is less than 100 nM.

As for `FC(F)(F)c1cccc(Nc2ccc3nnc(Cc4ccc5c(c4)OCO5)n3n2)c1` [Compound 226], the Ki is 100 to 2000 nM.

As to `Oc1ccc(Cc2nnc3sc(Nc4ccc(F)cc4)nn23)cc1` [Compound 46], the Ki was less than 100 nM.

Take `CCCC(C)Nc1ccc2nnc(Cc3ccc(O)cc3)n2n1` (centres unmarked) [Compound 280]: the Ki was in the range of 100 to 2000 nM.

In the case of `C[C@@H](c1ccc(O)c(C(C)(C)C)c1)c1nnc2sc(Nc3cccc(F)c3)nn12` [Compound 172], the Ki lay within 100 to 2000 nM.

As for `COC(=O)c1ccccc1Nc1nn2c(Cc3ccc(O)cc3)nnc2s1` [Compound 69], the Ki is more than 2000 nM.

As to `OCc1cccc(Nc2ccc3nnc(Cc4ccc(O)c(F)c4)n3n2)c1` [Compound 260], the inhibition constant (Ki) lay within 100 to 2000 nM.

With `Oc1ccc(Cc2nnc3sc(Nc4ccccc4Cl)nn23)cc1Cl` [Compound 67], the Ki was in the range of 100 to 2000 nM.

Regarding `Cc1cc(C)cc(Nc2ccc3nnc(Cc4ccncc4)n3n2)c1` [Compound 249], the Ki was more than 2000 nM.

Consider `CN(C)c1ccc(Nc2nn3c(Cc4ccc(O)cc4)nnc3s2)cc1` [Compound 74], for which the Ki was in the range of 100 to 2000 nM.

With `COc1ccc(Cc2nnc3sc(-c4cccs4)nn23)cc1` [Compound 22], the Ki is 100 to 2000 nM.

As to `Oc1cccc2c1ccn2Cc1nnc2sc(Nc3cccc(C(F)(F)F)c3)nn12` [Compound 160], the Ki is less than 100 nM.

With `Nc1nn2c(Cc3ccc(OCc4ccccc4)cc3)nnc2s1` [Compound 1], the Ki was more than 2000 nM.

Turning to `Oc1ccc(Cc2nnc3ccc(N4CCCC4c4ccc(F)cc4)nn23)cc1` (centres unmarked) [Compound 202], the Ki was more than 2000 nM.

As to `Cc1ccc(Nc2nn3c(Cc4ccc(O)cc4)nnc3s2)cc1C` [Compound 72], the Ki was in the range of 100 to 2000 nM.

For the compound `COc1ccc([C@H](C)c2nnc3sc(Nc4cccc(F)c4)nn23)cc1` [Compound 158], the inhibitory constant (Ki) lay in the range of 100 to 2000 nM.

On to `Oc1ccc(Cc2nnc3sc(NC4CC4)nn23)cc1` [Compound 19], for which the Ki is more than 2000 nM.

In the case of `Oc1ccc(Cc2nnc3sc(Nc4cc(Cl)ccc4Cl)nn23)cc1` [Compound 77], the Ki was less than 100 nM.

On to `Oc1ccc(Cc2nnc3sc(NCc4cccnc4)nn23)cc1` [Compound 9], for which the Ki fell in the range of 100 to 2000 nM.

As to `c1ccc(-c2ccc3nnc(Cc4ccc5c(c4)OCO5)n3n2)cc1` [Compound 207], the Ki is 100 to 2000 nM.

With `CC(C)[C@@H](N)C(=O)Oc1ccc([C@H](C)c2nnc3sc(Nc4cccc(F)c4)nn23)cc1` [Compound 165], the Ki was less than 100 nM.

As to `COc1cc(Cc2nnc3sc(Nc4ccccc4OC)nn23)ccc1O` [Compound 33], the Ki is more than 2000 nM.

In the case of `COc1ccc(Cc2nnc3ccc(Nc4cccc(Cl)c4)nn23)cc1` [Compound 238], the Ki is less than 100 nM.

For the compound `C[C@@H](c1ccc(OC(=O)[C@@H](C)N)cc1)c1nnc2sc(Nc3cccc(Cl)c3)nn12` [Compound 167], the Ki was less than 100 nM.

As to `Oc1ccc(Cc2nnc3ccc(NC4CCN(Cc5ccccc5)C4)nn23)cc1` (centres unmarked) [Compound 273], the Ki was 100 to 2000 nM.

For `Cc1ccc(Nc2nn3c(Cc4ccc(O)cc4)nnc3s2)cc1` [Compound 60], the Ki was less than 100 nM.

Regarding `COc1ccc(Nc2nn3c(C(C)c4ccc(O)cc4)nnc3s2)cc1` (centres unmarked) [Compound 40], the Ki is less than 100 nM.

Take `NC(=O)[C@H]1CCC[C@H]1Nc1ccc2nnc(Cc3ccc(O)cc3)n2n1` [Compound 203]: the Ki was more than 2000 nM.

Regarding `COc1ccc(Nc2nn3c(Cc4ccc(O)c(Cl)c4)nnc3s2)cc1` [Compound 39], the Ki fell in the range of 100 to 2000 nM.

With `COc1cccc(Nc2ccc3nnc(Cc4ccc(O)c(Cl)c4)n3n2)c1` [Compound 241], the Ki fell in the range of 100 to 2000 nM.

Turning to `Fc1cccc(Nc2ccc3nnc(Cc4ccncc4)n3n2)c1` [Compound 220], the Ki is 100 to 2000 nM.

Consider `Fc1cc(F)cc(Nc2ccc3nnc(Cc4ccncc4)n3n2)c1` [Compound 254], for which the Ki lay within 100 to 2000 nM.

Take `Oc1ccc(CCc2nnc3sc(Nc4cccc(F)c4)nn23)cc1` [Compound 93]: the Ki was more than 2000 nM.

For the compound `Oc1ccc(Cc2nnc3ccc(Nc4cc(Cl)cc(Cl)c4)nn23)cc1F` [Compound 245], the Ki is less than 100 nM.

The values above are taken from patent US7998987B2, “Inhibitors of c-Met and uses thereof” (Vertex Pharmaceuticals Incorporated, priority 2005, dated 2011).
